Measurements published in patent US20220242846A1, “ISOINDOLINONE COMPOUNDS” (Monte Rosa Therapeutics AG, priority 2019, published 2022).
Read-outs that look alike come from different tables or passages of the source.

How the values were obtained:
Assay type in all cases: cell-based
[1] = target: GSPT1 (Homo sapiens, UniProt P15170+Q96SW2); assay: Immunofluorescence assay for GSPT1 degradation in CAL-51 cells; set-up: CAL-51 cells were purchased from DSMZ (cat. Number ACC302); endogenous in cells; host or cells: CAL-51 (DSMZ ACC302); settings: compound treatment 6 hours
Summary of the method: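 CAL-51 cells on fibronectin-coated plates treated 6 h with compound (30 μM to 0.1 nM); fixed, stained with anti-GSPT1/Alexa-488, phalloidin and DAPI, imaged by high-content microscopy. Mean GSPT1 intensity per cell normalized to controls; DC50 by non-linear regression.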

[2] = tested on: Human mammary epithelial cells (HMEC) engineered to express EGFP alone (non myc); assay: 3D spheroid assay, non myc-HMEC (CellTiterGlo3D viability); settings: 120 h, 3D spheroids, 5 days with compound, read-out: Code: EC50 value in the non myc-HMEC assay
[3] = tested on: Human mammary epithelial cells (HMEC) engineered to express c-myc tagged with EGFP; assay: 3D spheroid assay, myc-HMEC (CellTiterGlo3D viability)
[4] = read-out: Code: activity for GSPT1 degradation (DC50)

Sequence of GSPT1 (P15170 whole entry): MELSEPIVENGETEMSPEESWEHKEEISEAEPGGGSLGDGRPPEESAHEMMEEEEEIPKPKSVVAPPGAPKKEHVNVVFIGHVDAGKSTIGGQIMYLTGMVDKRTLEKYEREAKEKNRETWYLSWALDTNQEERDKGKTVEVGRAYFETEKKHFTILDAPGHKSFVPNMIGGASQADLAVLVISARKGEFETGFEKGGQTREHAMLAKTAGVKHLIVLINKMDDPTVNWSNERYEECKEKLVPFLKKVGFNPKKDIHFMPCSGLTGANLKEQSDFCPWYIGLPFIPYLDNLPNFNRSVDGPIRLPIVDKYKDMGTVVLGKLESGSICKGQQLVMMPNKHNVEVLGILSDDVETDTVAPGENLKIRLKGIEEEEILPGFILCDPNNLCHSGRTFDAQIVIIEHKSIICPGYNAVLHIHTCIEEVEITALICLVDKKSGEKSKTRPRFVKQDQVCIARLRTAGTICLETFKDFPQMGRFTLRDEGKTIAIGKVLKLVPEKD
Sequence of GSPT1 (Q96SW2 whole entry): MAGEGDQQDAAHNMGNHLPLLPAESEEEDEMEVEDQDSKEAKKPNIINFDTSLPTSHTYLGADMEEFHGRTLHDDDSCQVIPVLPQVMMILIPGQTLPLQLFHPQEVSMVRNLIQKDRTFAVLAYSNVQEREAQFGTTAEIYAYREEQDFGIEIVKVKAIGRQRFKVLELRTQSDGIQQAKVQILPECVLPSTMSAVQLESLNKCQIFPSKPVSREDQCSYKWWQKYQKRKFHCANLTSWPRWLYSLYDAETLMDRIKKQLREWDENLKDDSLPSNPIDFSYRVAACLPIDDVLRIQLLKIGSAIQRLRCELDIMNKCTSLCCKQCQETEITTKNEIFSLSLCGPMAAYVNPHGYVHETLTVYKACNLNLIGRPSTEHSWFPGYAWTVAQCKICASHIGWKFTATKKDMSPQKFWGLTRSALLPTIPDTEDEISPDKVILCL
Sequence of GSPT1 (Q16531 2-1140 partner limits assumed): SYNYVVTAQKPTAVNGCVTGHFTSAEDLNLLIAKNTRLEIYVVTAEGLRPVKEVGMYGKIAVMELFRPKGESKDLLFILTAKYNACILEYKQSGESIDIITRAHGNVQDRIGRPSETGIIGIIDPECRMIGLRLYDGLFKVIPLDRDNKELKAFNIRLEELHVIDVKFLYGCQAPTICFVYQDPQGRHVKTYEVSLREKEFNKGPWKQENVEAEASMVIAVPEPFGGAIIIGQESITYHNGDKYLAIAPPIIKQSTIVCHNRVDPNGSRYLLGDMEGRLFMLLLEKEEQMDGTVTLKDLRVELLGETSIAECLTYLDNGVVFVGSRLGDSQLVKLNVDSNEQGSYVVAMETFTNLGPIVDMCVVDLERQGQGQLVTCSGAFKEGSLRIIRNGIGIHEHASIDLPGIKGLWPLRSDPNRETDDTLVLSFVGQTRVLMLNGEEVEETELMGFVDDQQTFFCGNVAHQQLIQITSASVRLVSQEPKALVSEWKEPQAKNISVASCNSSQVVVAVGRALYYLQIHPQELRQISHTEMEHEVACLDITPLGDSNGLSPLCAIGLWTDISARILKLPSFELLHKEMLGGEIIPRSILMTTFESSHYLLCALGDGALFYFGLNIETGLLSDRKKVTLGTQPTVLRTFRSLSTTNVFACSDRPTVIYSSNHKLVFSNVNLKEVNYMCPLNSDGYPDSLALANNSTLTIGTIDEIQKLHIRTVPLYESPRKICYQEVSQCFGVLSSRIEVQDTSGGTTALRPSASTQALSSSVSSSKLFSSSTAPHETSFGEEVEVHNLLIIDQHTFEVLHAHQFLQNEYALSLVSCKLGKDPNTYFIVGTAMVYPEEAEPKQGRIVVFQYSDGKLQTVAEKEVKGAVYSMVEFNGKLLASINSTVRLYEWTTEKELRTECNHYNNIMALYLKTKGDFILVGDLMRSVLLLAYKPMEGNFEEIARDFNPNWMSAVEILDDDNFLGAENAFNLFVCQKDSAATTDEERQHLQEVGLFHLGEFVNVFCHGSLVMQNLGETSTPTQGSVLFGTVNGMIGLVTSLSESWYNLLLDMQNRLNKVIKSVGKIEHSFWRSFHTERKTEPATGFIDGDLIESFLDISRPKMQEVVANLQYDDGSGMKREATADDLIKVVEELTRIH

DC50 [1, 4] [nM]	Structure (SMILES)	also measured
> 300	Cc1ccc(NC(=O)NCc2ccc3c(c2)C(=O)N(C2CCC(=O)NC2=O)C3)c(Cl)c1Cl (centres unmarked) [Compound 87]	
100 to 300	Cc1cc(C)c(NC(=O)NCc2ccc3c(c2)C(=O)N(C2CCC(=O)NC2=O)C3)cc1Cl (centres unmarked) [Compound 85]	DC50 ([1]; GSPT1 degradation, read-out: DC50): 274 nM
≤ 100	Cc1c(Cl)cc(NC(=O)NCc2ccc3c(c2)C(=O)N(C2CCC(=O)NC2=O)C3)cc1CN1CCOCC1 (centres unmarked) [Compound 82]	
> 300	O=C1CCC(N2Cc3ccc(CNC(=O)Nc4cccc(CN5CCOCC5)c4)cc3C2=O)C(=O)N1 (centres unmarked) [Compound 105]	
	Cc1ccc(NC(=O)NCc2ccc3c(c2)C(=O)N(C2CCC(=O)NC2=O)C3)cc1Cl (centres unmarked) [Compound 8]	EC50 [2]: > 10000 nM; EC50 ([3]; Homo sapiens, HMEC, 120 h, 3D spheroids, 5 days with compound, read-out: Code: EC50 value in the myc-HMEC assay): ≤ 400 nM; EC50 ([3]; myc-HMEC 3D spheroids (compounds with code D and E), 5 days, read-out: EC50): 220 nM
100 to 300	Cc1c(Cl)cc(NC(=O)NCc2ccc3c(c2)C(=O)N(C2CCC(=O)NC2=O)C3)cc1CN(C)C (centres unmarked) [Compound 75]	EC50 [2]: > 10000 nM
≤ 100	Cc1c(Cl)cc(NC(=O)NCc2ccc3c(c2)C(=O)N(C2CCC(=O)NC2=O)C3)cc1CC1COCOC1 (centres unmarked) [Compound 132]	
